Results from ChEMBL document CHEMBL3991601, “The target landscape of clinical kinase drugs” (Science, 2017).
Calls of active or inactive are those of the source. For most assays here, no stated cut-off is given here; in the data, actives have a measured Kd and inactives only a lower limit.

Assays:
Activin receptor type-2B = Activin receptor type-2B (Homo sapiens, UniProt Q13705)
Ephrin type-A receptor 5 = Ephrin type-A receptor 5 (Homo sapiens, UniProt P54756)
[1] = target: T1, Receptor-type tyrosine-protein kinase FLT3 (Homo sapiens, UniProt P36888)
T1 sequence (P36888 whole entry): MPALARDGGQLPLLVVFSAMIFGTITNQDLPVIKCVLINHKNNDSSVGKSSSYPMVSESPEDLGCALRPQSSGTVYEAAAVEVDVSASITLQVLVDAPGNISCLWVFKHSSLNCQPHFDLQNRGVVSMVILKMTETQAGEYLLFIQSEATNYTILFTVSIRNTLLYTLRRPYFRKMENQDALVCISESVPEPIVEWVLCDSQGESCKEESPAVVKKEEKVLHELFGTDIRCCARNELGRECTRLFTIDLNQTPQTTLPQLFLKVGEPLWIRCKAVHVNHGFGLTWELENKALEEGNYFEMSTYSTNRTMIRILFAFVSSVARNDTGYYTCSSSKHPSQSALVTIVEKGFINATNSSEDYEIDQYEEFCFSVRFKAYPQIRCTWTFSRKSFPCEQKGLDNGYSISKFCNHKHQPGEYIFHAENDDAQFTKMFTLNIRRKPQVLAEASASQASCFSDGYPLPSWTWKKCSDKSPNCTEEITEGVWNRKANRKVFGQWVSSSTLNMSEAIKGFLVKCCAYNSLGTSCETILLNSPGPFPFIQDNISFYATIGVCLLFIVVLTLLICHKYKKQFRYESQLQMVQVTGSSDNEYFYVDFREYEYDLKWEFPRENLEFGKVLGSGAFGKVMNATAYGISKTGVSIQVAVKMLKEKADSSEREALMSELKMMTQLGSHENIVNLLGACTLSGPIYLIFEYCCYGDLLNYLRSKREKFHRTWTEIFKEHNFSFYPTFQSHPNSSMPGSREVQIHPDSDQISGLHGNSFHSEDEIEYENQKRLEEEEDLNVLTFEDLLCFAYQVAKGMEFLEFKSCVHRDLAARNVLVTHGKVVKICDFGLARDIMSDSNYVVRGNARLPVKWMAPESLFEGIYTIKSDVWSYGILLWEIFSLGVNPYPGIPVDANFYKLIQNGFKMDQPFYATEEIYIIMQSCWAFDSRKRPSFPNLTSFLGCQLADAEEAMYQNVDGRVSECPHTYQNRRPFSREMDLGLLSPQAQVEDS

[2] = target: Inosine-5'-monophosphate dehydrogenase 2 (Homo sapiens, UniProt P12268)
[3] = target: T2, Interleukin-1 receptor-associated kinase 3 (Homo sapiens, UniProt Q9Y616)
T2 sequence (Q9Y616 whole entry): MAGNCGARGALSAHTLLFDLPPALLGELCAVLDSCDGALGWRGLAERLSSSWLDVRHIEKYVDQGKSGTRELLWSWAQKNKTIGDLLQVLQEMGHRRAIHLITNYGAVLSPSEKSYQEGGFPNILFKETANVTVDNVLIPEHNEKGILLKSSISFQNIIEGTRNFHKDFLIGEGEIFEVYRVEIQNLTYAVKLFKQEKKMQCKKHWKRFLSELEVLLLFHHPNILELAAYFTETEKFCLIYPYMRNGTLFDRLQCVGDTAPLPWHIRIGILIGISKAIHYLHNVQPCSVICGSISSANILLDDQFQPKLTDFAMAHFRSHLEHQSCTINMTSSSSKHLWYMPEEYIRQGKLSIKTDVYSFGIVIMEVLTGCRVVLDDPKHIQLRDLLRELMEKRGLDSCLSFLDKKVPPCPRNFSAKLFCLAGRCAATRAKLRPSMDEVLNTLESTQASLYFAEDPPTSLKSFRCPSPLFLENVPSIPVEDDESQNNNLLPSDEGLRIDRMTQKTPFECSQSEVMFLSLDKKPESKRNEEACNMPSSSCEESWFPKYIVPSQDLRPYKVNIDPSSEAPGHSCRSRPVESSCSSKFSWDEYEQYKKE

[4] = target: Mitogen-activated protein kinase 9 (Homo sapiens, UniProt P45984)
Chain of Mitogen-activated protein kinase 9 (P45984 whole entry): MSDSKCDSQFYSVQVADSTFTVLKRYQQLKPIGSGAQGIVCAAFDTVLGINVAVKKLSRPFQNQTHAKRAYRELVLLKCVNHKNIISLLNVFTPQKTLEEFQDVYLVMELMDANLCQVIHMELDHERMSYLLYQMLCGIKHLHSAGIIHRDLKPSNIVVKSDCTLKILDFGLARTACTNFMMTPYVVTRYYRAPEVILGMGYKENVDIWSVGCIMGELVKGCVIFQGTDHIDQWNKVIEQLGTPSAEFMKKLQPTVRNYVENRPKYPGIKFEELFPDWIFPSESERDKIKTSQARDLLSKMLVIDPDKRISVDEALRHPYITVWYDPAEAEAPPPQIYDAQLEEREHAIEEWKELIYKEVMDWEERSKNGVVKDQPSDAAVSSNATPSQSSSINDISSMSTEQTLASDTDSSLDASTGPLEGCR

[5] = target: cAMP-dependent protein kinase type II-alpha regulatory subunit (Homo sapiens, UniProt P13861)
Chain of cAMP-dependent protein kinase type II-alpha regulatory subunit (P13861 whole entry): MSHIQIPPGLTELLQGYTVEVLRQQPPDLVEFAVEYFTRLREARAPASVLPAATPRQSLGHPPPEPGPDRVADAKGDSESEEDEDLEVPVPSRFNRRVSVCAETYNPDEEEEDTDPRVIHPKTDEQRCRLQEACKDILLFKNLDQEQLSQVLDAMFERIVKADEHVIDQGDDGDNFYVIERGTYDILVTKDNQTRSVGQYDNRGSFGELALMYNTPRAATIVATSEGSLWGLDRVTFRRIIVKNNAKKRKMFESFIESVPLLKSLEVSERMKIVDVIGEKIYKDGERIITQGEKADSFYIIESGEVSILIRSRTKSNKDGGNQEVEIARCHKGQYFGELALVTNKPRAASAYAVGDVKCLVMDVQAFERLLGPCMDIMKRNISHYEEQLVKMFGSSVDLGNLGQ

[6] = target: 26S proteasome regulatory subunit 6B (Homo sapiens, UniProt P43686)
Chain of 26S proteasome regulatory subunit 6B (P43686 whole entry): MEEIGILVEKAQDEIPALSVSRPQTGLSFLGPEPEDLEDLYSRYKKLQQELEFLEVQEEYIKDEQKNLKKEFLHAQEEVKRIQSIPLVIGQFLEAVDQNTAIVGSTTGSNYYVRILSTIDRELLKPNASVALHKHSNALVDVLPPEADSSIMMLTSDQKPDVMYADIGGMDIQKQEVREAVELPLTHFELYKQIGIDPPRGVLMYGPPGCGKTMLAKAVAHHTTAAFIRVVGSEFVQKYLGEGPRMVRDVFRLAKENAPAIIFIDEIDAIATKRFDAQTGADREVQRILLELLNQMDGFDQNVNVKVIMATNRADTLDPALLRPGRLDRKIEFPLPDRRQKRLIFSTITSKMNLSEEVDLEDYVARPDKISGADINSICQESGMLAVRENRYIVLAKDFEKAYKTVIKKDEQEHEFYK

[7] = target: Ribosomal protein S6 kinase beta-1 (Homo sapiens, UniProt P23443)
Chain of Ribosomal protein S6 kinase beta-1 (P23443 whole entry): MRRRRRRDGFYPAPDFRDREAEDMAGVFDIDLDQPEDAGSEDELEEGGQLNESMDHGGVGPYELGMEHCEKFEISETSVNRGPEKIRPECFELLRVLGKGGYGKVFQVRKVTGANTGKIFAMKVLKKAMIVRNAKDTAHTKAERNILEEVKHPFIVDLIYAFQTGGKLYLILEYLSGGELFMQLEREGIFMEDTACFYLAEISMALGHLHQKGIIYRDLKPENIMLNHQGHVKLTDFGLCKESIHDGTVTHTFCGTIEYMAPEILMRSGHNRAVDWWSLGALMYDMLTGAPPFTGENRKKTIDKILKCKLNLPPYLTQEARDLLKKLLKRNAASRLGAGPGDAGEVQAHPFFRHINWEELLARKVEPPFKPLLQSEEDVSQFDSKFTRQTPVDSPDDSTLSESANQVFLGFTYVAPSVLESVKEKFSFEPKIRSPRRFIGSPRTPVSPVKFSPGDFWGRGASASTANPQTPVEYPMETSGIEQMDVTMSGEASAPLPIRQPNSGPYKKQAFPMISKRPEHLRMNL

[8] = target: Tyrosine-protein kinase SYK (Homo sapiens, UniProt P43405)
[9] = target: T3, Serine/threonine-protein kinase TAO1 (Homo sapiens, UniProt Q7L7X3)
T3 sequence (Q7L7X3 whole entry): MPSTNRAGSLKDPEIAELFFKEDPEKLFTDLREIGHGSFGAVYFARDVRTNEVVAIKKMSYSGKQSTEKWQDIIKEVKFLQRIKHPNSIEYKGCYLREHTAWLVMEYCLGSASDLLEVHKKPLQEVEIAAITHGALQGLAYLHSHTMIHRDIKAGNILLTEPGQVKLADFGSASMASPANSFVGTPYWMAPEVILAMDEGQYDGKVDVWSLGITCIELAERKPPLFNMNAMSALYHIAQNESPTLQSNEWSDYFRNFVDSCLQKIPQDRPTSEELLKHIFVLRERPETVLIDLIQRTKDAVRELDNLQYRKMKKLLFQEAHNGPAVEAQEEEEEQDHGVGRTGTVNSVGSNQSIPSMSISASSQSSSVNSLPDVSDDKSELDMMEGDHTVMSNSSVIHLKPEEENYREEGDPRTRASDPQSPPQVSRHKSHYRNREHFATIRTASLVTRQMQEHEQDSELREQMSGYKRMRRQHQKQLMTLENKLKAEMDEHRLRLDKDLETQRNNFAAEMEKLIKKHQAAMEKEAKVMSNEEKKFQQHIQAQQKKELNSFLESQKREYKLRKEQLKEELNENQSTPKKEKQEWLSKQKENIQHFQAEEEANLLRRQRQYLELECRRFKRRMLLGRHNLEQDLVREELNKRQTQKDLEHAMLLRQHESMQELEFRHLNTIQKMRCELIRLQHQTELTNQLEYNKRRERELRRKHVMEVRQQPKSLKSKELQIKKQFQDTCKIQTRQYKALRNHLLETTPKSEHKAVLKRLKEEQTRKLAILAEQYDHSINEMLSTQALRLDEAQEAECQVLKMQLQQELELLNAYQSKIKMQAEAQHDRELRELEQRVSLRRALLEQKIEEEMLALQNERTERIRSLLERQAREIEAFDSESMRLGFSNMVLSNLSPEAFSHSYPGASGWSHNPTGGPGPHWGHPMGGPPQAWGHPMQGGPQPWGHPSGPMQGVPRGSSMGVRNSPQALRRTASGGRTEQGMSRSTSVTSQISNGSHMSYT

Chain of Ephrin type-A receptor 5 (P54756 whole entry): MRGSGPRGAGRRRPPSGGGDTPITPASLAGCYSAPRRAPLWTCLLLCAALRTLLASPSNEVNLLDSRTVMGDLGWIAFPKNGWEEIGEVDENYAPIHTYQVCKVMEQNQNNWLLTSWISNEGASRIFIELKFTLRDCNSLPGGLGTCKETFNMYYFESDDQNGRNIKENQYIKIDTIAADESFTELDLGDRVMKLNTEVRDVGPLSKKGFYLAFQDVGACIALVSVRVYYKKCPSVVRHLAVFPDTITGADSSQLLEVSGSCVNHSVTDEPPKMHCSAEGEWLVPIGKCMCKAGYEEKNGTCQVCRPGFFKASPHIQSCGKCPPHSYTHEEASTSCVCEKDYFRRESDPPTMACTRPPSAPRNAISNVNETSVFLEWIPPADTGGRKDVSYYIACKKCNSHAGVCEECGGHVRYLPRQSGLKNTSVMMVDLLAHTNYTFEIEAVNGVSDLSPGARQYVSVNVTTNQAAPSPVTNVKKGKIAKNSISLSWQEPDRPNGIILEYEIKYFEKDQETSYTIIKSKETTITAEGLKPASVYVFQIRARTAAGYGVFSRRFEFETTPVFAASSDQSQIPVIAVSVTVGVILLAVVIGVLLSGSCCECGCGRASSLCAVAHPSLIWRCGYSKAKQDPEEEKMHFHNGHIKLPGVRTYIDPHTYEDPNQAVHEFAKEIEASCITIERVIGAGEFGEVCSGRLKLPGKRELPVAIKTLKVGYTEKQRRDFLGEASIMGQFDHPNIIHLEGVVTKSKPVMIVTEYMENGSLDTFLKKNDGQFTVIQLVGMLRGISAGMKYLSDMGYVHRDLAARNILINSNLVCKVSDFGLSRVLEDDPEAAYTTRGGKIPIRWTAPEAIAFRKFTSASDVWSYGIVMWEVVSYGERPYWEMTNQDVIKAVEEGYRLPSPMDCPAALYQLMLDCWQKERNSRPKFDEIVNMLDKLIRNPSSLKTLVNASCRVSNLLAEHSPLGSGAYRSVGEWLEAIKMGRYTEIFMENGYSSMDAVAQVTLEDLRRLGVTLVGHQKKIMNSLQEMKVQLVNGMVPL
Chain of Activin receptor type-2B (Q13705 whole entry): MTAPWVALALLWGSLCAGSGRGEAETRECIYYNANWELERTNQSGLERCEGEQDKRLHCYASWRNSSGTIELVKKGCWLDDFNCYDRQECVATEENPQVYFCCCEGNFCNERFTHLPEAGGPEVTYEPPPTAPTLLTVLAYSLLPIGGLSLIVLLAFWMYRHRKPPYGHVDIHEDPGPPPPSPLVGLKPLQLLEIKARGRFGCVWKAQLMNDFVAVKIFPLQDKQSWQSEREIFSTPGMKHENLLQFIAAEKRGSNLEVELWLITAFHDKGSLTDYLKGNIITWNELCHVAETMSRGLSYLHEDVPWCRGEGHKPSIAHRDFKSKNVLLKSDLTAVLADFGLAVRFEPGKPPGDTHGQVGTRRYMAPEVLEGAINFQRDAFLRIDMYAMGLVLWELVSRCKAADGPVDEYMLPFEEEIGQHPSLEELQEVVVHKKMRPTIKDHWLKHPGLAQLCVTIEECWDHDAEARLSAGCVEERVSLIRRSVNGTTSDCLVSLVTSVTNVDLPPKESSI

SMILES | Kd (Activin receptor type-2B) | Kd (Ephrin type-A receptor 5) | Kd [1] | Kd [2] | Kd [3] | Kd [4] | Kd [5] | Kd [6] | Kd [7] | Kd [8] | Kd [9]
CC(C)Nc1cc(-c2c[nH]c(C(=O)N[C@H](CO)c3cccc(Cl)c3)c2)c(Cl)cn1 [ULIXERTINIB] | > 30 µM (inactive) | > 30 µM (inactive) | > 30 µM (inactive) | > 30 µM (inactive) | > 30 µM (inactive) | > 30 µM (inactive) | > 30 µM (inactive) | > 30 µM (inactive) | > 30 µM (inactive) | > 30 µM (inactive) | 0.388 µM (active)
CC[C@@H]1C(=O)N(C)c2cnc(Nc3ccc(C(=O)N[C@H]4CC[C@H](N5CCN(CC6CC6)CC5)CC4)cc3OC)nc2N1C(C)C [VOLASERTIB] | > 30 µM (inactive) | > 30 µM (inactive) | > 30 µM (inactive) | > 30 µM (inactive) | > 30 µM (inactive) | > 30 µM (inactive) | > 30 µM (inactive) | > 30 µM (inactive) | > 30 µM (inactive) | > 30 µM (inactive) | > 30 µM (inactive)
CN1CC[C@@H](c2c(O)cc(O)c3c(=O)cc(-c4ccccc4Cl)oc23)[C@@H]1CO | > 30 µM (inactive) | > 30 µM (inactive) | > 30 µM (inactive) | > 30 µM (inactive) | > 30 µM (inactive) | > 30 µM (inactive) | > 30 µM (inactive) | > 30 µM (inactive) | > 30 µM (inactive) | > 30 µM (inactive) | > 30 µM (inactive)
COC(=O)N[C@@H](C)CNc1nccc(-c2cn(C(C)C)nc2-c2cc(Cl)cc(NS(C)(=O)=O)c2F)n1 [ENCORAFENIB] | > 30 µM (inactive) | > 30 µM (inactive) | > 30 µM (inactive) | > 30 µM (inactive) | > 30 µM (inactive) | 0.915 µM (active) | > 30 µM (inactive) | > 30 µM (inactive) | > 30 µM (inactive) | > 30 µM (inactive) | > 30 µM (inactive)
COCCNCc1ccc(-c2cc3nccc(Oc4ccc(NC(=S)NC(=O)Cc5ccc(F)cc5)cc4F)c3s2)nc1 [GLESATINIB] | > 30 µM (inactive) | > 30 µM (inactive) | 0.179 µM (active) | > 30 µM (inactive) | > 30 µM (inactive) | > 30 µM (inactive) | > 30 µM (inactive) | > 30 µM (inactive) | > 30 µM (inactive) | 2.68 µM (active) | > 30 µM (inactive)
CCS(=O)(=O)N1CC(CC#N)(n2cc(-c3ncnc4[nH]ccc34)cn2)C1 [BARICITINIB] | > 30 µM (inactive) | > 30 µM (inactive) | > 30 µM (inactive) | > 30 µM (inactive) | > 30 µM (inactive) | > 30 µM (inactive) | > 30 µM (inactive) | > 30 µM (inactive) | > 30 µM (inactive) | > 30 µM (inactive) | > 30 µM (inactive)
Cc1c(F)cc(C(=O)NC2CC2)cc1-c1ccc(C(=O)NCC(C)(C)C)cn1 [LOSMAPIMOD] | > 30 µM (inactive) | > 30 µM (inactive) | > 30 µM (inactive) | > 30 µM (inactive) | > 30 µM (inactive) | > 30 µM (inactive) | > 30 µM (inactive) | > 30 µM (inactive) | > 30 µM (inactive) | > 30 µM (inactive) | > 30 µM (inactive)
CO[C@H]1C[C@@H]2CC[C@@H](C)[C@@](O)(O2)C(=O)C(=O)N2CCCC[C@H]2C(=O)O[C@H]([C@H](C)C[C@@H]2CC[C@@H](OCCO)[C@H](OC)C2)CC(=O)[C@H](C)/C=C(\C)[C@@H](O)[C@@H](OC)C(=O)[C@H](C)C[C@H](C)/C=C/C=C/C=C/1C [EVEROLIMUS] | > 30 µM (inactive) | > 30 µM (inactive) | > 30 µM (inactive) | > 30 µM (inactive) | > 30 µM (inactive) | > 30 µM (inactive) | > 30 µM (inactive) | > 30 µM (inactive) | > 30 µM (inactive) | > 30 µM (inactive) | > 30 µM (inactive)
CCN1CCN(Cc2ccc(-c3cc4c(N[C@H](C)c5ccccc5)ncnc4[nH]3)cc2)CC1 [AEE-788] | > 30 µM (inactive) | > 30 µM (inactive) | > 30 µM (inactive) | > 30 µM (inactive) | > 30 µM (inactive) | > 30 µM (inactive) | > 30 µM (inactive) | > 30 µM (inactive) | > 30 µM (inactive) | > 30 µM (inactive) | > 30 µM (inactive)
CC(=O)Nc1cccc(-n2c(=O)n(C3CC3)c(=O)c3c(Nc4ccc(I)cc4F)n(C)c(=O)c(C)c32)c1 [TRAMETINIB] | > 30 µM (inactive) | > 30 µM (inactive) | > 30 µM (inactive) | > 30 µM (inactive) | > 30 µM (inactive) | > 30 µM (inactive) | > 30 µM (inactive) | > 30 µM (inactive) | > 30 µM (inactive) | > 30 µM (inactive) | > 30 µM (inactive)
O=C(O)[C@]1(Cc2cccc(Nc3nccs3)n2)CC[C@@H](Oc2cccc(Cl)c2F)CC1 [MK-5108] | > 30 µM (inactive) | > 30 µM (inactive) | > 30 µM (inactive) | > 30 µM (inactive) | 0.024 µM (active) | > 30 µM (inactive) | > 30 µM (inactive) | > 30 µM (inactive) | > 30 µM (inactive) | > 30 µM (inactive) | > 30 µM (inactive)
O=C(Nc1ccc(-c2ccnc(Nc3ccc(N4CCOCC4)cc3)n2)cc1)C1CCCN1 (configuration not stated) [XL-019] | > 30 µM (inactive) | > 30 µM (inactive) | 12.5 µM (active) | > 30 µM (inactive) | > 30 µM (inactive) | > 30 µM (inactive) | > 30 µM (inactive) | > 30 µM (inactive) | > 30 µM (inactive) | > 30 µM (inactive) | > 30 µM (inactive)
